# Source: US10975092B2, “Pyrimidine seven-membered-ring compounds, preparation method therefor, pharmaceutical composition thereof, and uses thereof” (priority 2016, dated 2021)
# What was measured:
# recombinant Mst1 = target: T1, recombinant Mst1 (Homo sapiens, UniProt Q13043); assay: Inhibition of Mst1 kinase activity, ELISA of Mob1 substrate phosphorylation; assay type: biochemical; conditions: MST1 IC50, recombinant Mst1 11 nM; ATP 6.7 gIVI; GST-Mob1a substrate; 30° C. 15 min
# T1 sequence (Q13043 1-487): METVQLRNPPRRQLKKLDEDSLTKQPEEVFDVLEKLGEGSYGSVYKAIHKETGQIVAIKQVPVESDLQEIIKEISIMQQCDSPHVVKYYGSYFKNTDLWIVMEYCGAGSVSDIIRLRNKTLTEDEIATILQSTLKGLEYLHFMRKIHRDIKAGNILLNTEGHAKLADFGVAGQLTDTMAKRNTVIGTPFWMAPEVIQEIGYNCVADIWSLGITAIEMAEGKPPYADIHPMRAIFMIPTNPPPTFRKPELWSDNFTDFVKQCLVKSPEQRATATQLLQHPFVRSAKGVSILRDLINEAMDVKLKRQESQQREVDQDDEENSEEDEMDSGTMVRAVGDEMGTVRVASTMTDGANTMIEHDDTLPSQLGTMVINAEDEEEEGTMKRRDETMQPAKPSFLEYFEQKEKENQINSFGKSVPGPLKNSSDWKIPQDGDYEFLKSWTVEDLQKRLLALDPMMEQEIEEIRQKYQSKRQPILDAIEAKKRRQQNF
# Experimental: (§1) We adopt a specific ELISA (Enzyme-linked immunosorbent assay) assay for measuring the biochemical activity (FIG. 1).
# (§2) Specific methods are as follows:
# (§3) 1. The substrate was diluted with purified recombinant GST-Mobla 200 nM in coating buffer, added to 96-well plates (Nalge Nunc International, Denmark), coated for overnight at 4° C., washed nextday three times with rinsing solution;
# (§4) a. A kinase reaction buffer;
# (§5) c. compound (dissolved in DMSO, containing not more than 1% of the total volume of the reaction);
# (§6) Control Group Containing No ATP or Kinase;
# (§7) 3. The reaction solution was poured to terminate the kinase reaction, and washed 4 times with rinse solution, 5 minutes each wash;
# (§8) 4. Add 200 μL, per well of the blocking solution, shaking for 1 hour at room temperature, washed 4 times with rinsing solution;
# (§9) 7. Add TMB chromogenic solution (Biolegend, Cat.B200119, B200120). After the color reaction to a certain extent, add to each well 100 μL, of 2M H2SO4 to terminate the reaction;
# (§10) 8. […] Each set of three parallel experiments, the negative control is a solution with a final concentration of 1% DMSO, the control is the reaction system containing no ATP. […] The reagents are as follows: Coating Buffer: 0.1M NaHCO 3, 0.033M Na2CO3, pH 9.5 Rinse solution: 0.05% Tween-20 in PBS Reaction buffer: 40 mM of Hepes-NaOH (pH 7.4), 10 mM of MgCl2, 1 mM of dithiothreitol (DTT), 1 mM of NaF, 1 mM of Na3VO4, 1 mM of β-glycerophosphate Blocking solution: 1% BSA dissolved in PBS Compound Inhibition of Kinase Activity
# recombinant MST2 = target: T2, recombinant MST2 (Homo sapiens, UniProt Q13188); assay: Inhibition of Mst2 kinase activity, ELISA of Mob1 substrate phosphorylation; assay type: biochemical; conditions: MST2 IC50, 3.7 nM recombinant MST2; ATP 11.2 gIVI; GST-Mob1a substrate; 30° C. 15 min
# T2 sequence (Q13188 1-491): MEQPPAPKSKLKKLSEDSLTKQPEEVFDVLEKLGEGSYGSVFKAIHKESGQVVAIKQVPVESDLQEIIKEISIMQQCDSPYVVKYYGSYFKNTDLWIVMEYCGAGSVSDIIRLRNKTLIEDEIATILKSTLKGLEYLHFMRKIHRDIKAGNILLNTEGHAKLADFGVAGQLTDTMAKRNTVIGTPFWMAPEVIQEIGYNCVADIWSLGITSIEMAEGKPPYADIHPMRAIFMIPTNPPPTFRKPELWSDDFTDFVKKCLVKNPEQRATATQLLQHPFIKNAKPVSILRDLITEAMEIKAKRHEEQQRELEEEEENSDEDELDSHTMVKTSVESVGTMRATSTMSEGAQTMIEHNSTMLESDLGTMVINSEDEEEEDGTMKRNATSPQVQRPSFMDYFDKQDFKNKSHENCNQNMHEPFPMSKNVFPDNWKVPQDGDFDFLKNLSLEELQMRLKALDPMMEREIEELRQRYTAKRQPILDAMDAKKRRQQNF
# Experimental: as §1, §2, §3, §4, §5, §6, §7, §8, §9, §10
# [1] = system: wild type mice after hepatectomy; assay: Liver regeneration after partial liver resection (hepatectomy) in mice; assay type: in vivo; conditions: about 2/3 hepatectomy, 1 mg/kg body weight intraperitoneally twice daily, 1-7 days
# Experimental: Student's t-test in comparing drug-treated group and control group, *P<0.05, ***P<0.001.
# 8-10 week old wild type mice were anesthetized with intraperitoneal pentobarbital (80 mg/kg body weight). Hepatectomy was performed to remove left rear and intermediate liver lobes, about ⅔ of the entire liver. […] Mice after hepatectomy of 1, 2, 3, 4, 5, 6, or 7 days were sacrificed. Mouse body weight and liver weight are recorded and used to calculate the weight ratio of the liver (FIG. 2a). Liver tissue section used in immunohistochemistry to detect proliferating hepatocytes (of Ki67-positive) percentage.
# [2] = system: DSS-treated wild type mice; assay: Intestinal repair in DSS-induced intestinal injury mouse model; assay type: in vivo
# Experimental: 8-10 week old wild type mice were fed with water containing 2.5% DSS (MW 36-50 kDa, Cat. #160110, MP Biochemical) for 7 days, then switch to conventional drinking water. […] Throughout the experiment, the body weight of mice was weighed every day at a fixed time and calculate the ratio of the weight and the weight before DSS feeding. […] The DAI values were calculated as follows: the integrity of the stool (value 0-3, where 0: full dried fecal pellets; 1: soft particles; 2: loose, wet stool; 3: diarrhea); detection of intestinal bleeding with tolidine (o-tolidine) (value 0-3, where 0: detection reagent was added for 2 minutes, sample no color; 1: detection reagent was added, the sample within 10 seconds from light blue to blue; 2: after adding detection reagents, samples gradually changed from light brown to brown clear blue and a visible color in the feces; 3: after adding detection reagents, samples rapidly becoming brownish blue, significant blood and bleeding in a anus and feces. The body weight change in mice and DAI values were recorded for indicating the degree of intestinal injury repair.
SMILES,IC50 (recombinant Mst1),IC50 (recombinant MST2),"Liver regeneration after partial liver resection (liver/body weight ratio, Ki67-positive hepatocytes) [1]","Intestinal repair in DSS-induced intestinal injury model ([2]; 2.5% DSS in water 7 days, 1 mg/kg body weight injected once per day)","Body weight of DSS-treated mice ([2]; 2.5% DSS in water 7 days, 1 mg/kg once per day, FIG. 3a)","Intestinal injury clinical symptoms (disease activity index, DAI) ([2]; 2.5% DSS in water 7 days, 1 mg/kg once per day, FIG. 3b)","Yap activity in intestinal epithelial cells (immunohistochemical staining) ([2]; day 8 after DSS water feeding, 1 mg/kg once per day, FIG. 3c)","Epithelial repair and cell proliferation (BrdU and Ki67 positive cells in intestinal tissue) ([2]; day 8 after DSS water feeding, 1 mg/kg once per day, FIG. 3c-e)"
CN1C(=O)c2sccc2N(C)c2nc(Nc3ccc(S(N)(=O)=O)cc3)ncc21 [II-1],140 nM,40 nM,Effective in Promoting Liver Regeneration,promotes intestinal repair,significantly increase,slow the intestinal injury clinical symptoms,increases Yap activity,promote epithelial repair and cell proliferation
CN1CCN(S(=O)(=O)c2ccc(Nc3ncc4c(n3)N(C3CCCC3)c3ccccc3C(=O)N4)cc2)CC1 [IB-2],> 30000 nM,> 30000 nM,,,,,,
CN1C(=O)c2ccc(F)cc2N(C)c2nc(Nc3ccc(S(C)(=O)=O)cc3)ncc21 [IH-8],2170 nM,3360 nM,,,,,,
Cc1cccc2c1N(C)c1nc(Nc3ccc(S(N)(=O)=O)cc3)ncc1N(C)C2=O [IH-4],150 nM,190 nM,,,,,,
CN1C(=O)c2sccc2N(C)c2nc(Nc3ccc(S(=O)(=O)NC4CC4)cc3)ncc21 [II-6],260 nM,20 nM,,,,,,
CN1C(=O)c2ccccc2N(C)c2nc(Nc3ccc(S(C)(=O)=O)cc3)ncc21 [IC-7],500 nM,90 nM,,,,,,
